Where two headings read alike, the source gives them in different places. Marks after values point to notes of the source that are not given here.
How the values were obtained:
[1] = system: C-peptide; assay: Serum C-peptide during euglycemic clamp (endogenous insulin secretion); format: in vivo; details: healthy Chinese males, single 0.2 U/kg s.c., 10-h euglycemic clamp, ELISA, mean ± SD, N = 30
Method: The euglycemic clamp study was performed after inserting two catheters (an antecubital venous catheter for infusing 20% dextrose and a retrograde venous catheter in the hand heated in a box at 55–65℃ for measuring blood glucose). After collecting the basal blood glucose level [defined as the mean of the glucose measurement of several times (− 60, − 30, − 20, − 10 min) before dosing], the subjects received a 0.2 U/kg dose of NovoRapid or RD10046 by s.c. injection into a lifted abdominal skin-fold. Blood samples were obtained at the bedside for immediate determination of whole blood glucose concentrations and then monitored every 5 min from 0 to 240 min and every 10 min from 240 to 600 min after dosing. […]
(§1) Whole blood glucose concentrations were tested with a glucose analyzer (Biosen C_line GP+, Neckar Healthcare. Co. Ltd., Magdeburg, Germany) using an automated glucose oxidase technique. Serum C-peptide levels were analyzed using an ELISA (Cat. No. 80‐CPTHU‐E01.1; ALPCO, Salem, NH), and plasma IAsp concentrations were assessed by means of a validated, ultra-performance liquid chromatography-tandem mass spectrometry (UPLC-MS/MS) method at Covance Laboratories in Shanghai. The ranges of quantification were 20–3000 pmol/L for C-peptide and 0.2–10 ng/mL for IAsp.

[2] = in vivo; cited from earlier work
Description: (§2) The maximum observed drug concentration and total drug exposure were higher than those in the previous report, which might ...

[3] = system: healthy Chinese males; details: previous reports; cited from earlier work
Description: as §2

[4] = system: healthy Chinese males; assay: Euglycemic clamp pharmacodynamics (glucose infusion rate); format: in vivo; details: for Tearly,50% (time of half-maximum GIR before GIRmax) / Tlate,50% (time of half-maximum GIR after GIRmax) / Tonset (first time of blood glucose declining to target level, 0.28 mmol/L less than baseline) / tGIRmax (time of maximum glucose infusion rate) / AUCGIR,0–10h (total glucose infusion during the clamp) / GIRmax (maximum glucose infusion rate): healthy Chinese males, single 0.2 U/kg s.c., 10-h euglycemic clamp, N = 29 RD10046, 30 NovoRapid; for AUCGIR,0–10h (total glucose infusion during the clamp) / GIRmax (maximum glucose infusion rate): fasted, LOESS-smoothed GIR
Description: (§3) There was a phase I, single-site, randomized, single-dose, two-period, crossover, euglycemic clamp study, evaluating the similarity in PK and PD of two IAsp products in healthy subjects (a new IAsp biosimilar RD10046 by HEC Pharm vs. NovoRapid by Novo Nordisk). In this study, subjects were randomly allocated to one of two treatment sequences (Fig. 1), in which they received 0.2 units/kg s.c. doses of two different IAsp products (as listed above) on two occasions.
(§4) Subjects were admitted to the phrase I unit on day-1 of each treatment period. On day 1, subjects received a single dose of the IAsp biosimilar RD10046 or NovoRapid after an overnight fast of at least 10 h, and a euglycemic clamp procedure that lasted up to 10 h postdose was performed. Subjects were discharged when they had had carbohydrates at the end of the euglycemic clamp. An interval of 7–14 days existed between the two doses.
(§5) The euglycemic clamp study was performed after inserting two catheters (an antecubital venous catheter for infusing 20% dextrose and a retrograde venous catheter in the hand heated in a box at 55–65℃ for measuring blood glucose). After collecting the basal blood glucose level [defined as the mean of the glucose measurement of several times (− 60, − 30, − 20, − 10 min) before dosing], the subjects received a 0.2 U/kg dose of NovoRapid or RD10046 by s.c. injection into a lifted abdominal skin-fold. Blood samples were obtained at the bedside for immediate determination of whole blood glucose concentrations and then monitored every 5 min from 0 to 240 min and every 10 min from 240 to 600 min after dosing. During the euglycemic clamp, the GIR was varied as necessary to maintain the blood glucose concentration within approximately ± 10% of the target level (defined as 0.28 mmol/L below the subject’s basal glucose level). The investigator made the GIR adjustment based on glucose measurements and experience. If the GIR fell to zero for at least 30 min, the clamp was discontinued. A 4-mL blood sample was collected at the following points for analysis of C-peptide and IAsp concentration: − 30, 0 (before dosing), 10, 20, 30, 40, 50, 60, 90, 120, 150, 180, 210, 240, 270, 300, 360, 420, 480 and 600 min. The baseline of C-peptide was defined as the mean value of two measurements at − 30 and 0 min.
as §1
GIR profiles were smoothed by a locally weighted regression technique (LOESS, factor 0.10) using SAS software (version 9.4). The primary glucose-lowing effectiveness endpoints were the following parameters derived from the smoothed GIR profiles during the time interval from 0 to 10 h: (1) maximal GIR (GIRmax), (2) AUC of GIR from 0 to 10 h (AUCGIR, 0–10h). The time-related parameters including the time of GIRmax (tGIRmax), the onset of time (Tonset) (defined as the first time when BG declining at least 0.28 mmol/L from baseline), the time for GIR to rise from 0 to half of GIRmax (Tearly50%), and the time for GIR to decline from GIRmax to half of GIRmax (Tlate50%) were also recorded. A similar analysis was performed for GIRmax and AUCGIR, 0–10h.
(§6) Time-related PK/PD parameters were evaluated by a nonparametric approach based on the Hodges-Lehmann method.

[5] = system: healthy Chinese males; assay: Safety evaluation (treatment-emergent adverse events); format: in vivo; details: all causalities, single 0.2 U/kg s.c., N = 30
Description: The safety assessments included the vital signs, physical examination, laboratory tests (complete blood cell count, liver and renal function, urinalysis, etc.), 12-lead ECG, injection site reaction, hypoglycemia, and other AEs.

[6] = Pharmacokinetics of insulin aspart (plasma IAsp) during euglycemic clamp study; format: in vivo, healthy Chinese males; details: for t1/2: healthy Chinese males, single 0.2 U/kg s.c., fasted, plasma IAsp by UPLC-MS/MS, arithmetic mean (SD), N = 30; for Tmax: sc
Description: as §3, §4, §5, §1
The primary endpoint parameters of PK were shown as follows derived from time-profiles of IAsp: (1) maximal concentration of IAsp (Cmax), (2) the AUC of IAsp from 0 to 10 h (AUCIAsp, 0-10h). The time of Cmax (Tmax) and terminal half-life (t1/2) were also recorded. Those parameters mentioned above were calculated by PKsolver (version 2.0)[26]. Log-transformed AUCIAsp,0–10h and Cmax were evaluated with a linear mixed-effects model including subject as a random effect with the period, sequence, and treatment as fixed effects. For each parameter, the difference in the LS means along with the 90% CIs was back-transformed to produce the ratio of geometric means and the CI comparing treatments. The pharmacokinetic similarity was to be concluded if the 90% CIs for both AUCIAsp,0–10h and Cmax were completely contained within the interval of 0.80–1.25.
as §6

insulin aspart [NovoRapid]
C-peptide suppression after injection (reduction from baseline) [1]: 30.7 ± 13.3% | Tmax [2]: 48 to 70 min | GIRmax [3]: 6 to 9 mg/kg/min | total glucose infusion [3]: 1300 to 1500 mg/kg | Tearly,50% (time of half-maximum GIR before GIRmax) ([4]; geometric mean (CV %)): 38 (22) min | Tlate,50% (time of half-maximum GIR after GIRmax) ([4]; geometric mean (CV %)): 226 (17) min | Tonset (first time of blood glucose declining to target level, 0.28 mmol/L less than baseline) ([4]; geometric mean (CV %)): 15 (23) min | tGIRmax (time of maximum glucose infusion rate) ([4]; geometric mean (CV %)): 104 (26) min | AUCGIR,0–10h (total glucose infusion during the clamp) ([4]; arithmetic mean): 1594 mg/kg | GIRmax (maximum glucose infusion rate) ([4]; arithmetic mean): 7.84 mg/kg/min | AUCGIR,0–10h (total glucose infusion during the clamp) ([4]; geometric mean (CV %)): 1542 (27) mg/kg | GIRmax (maximum glucose infusion rate) ([4]; geometric mean (CV %)): 7.64 (22) mg/kg/min | TEAE Blood bilirubin increased: number of AEs (number of subjects with AEs) [5]: 1 (1) | t1/2 [6]: 38.0 (9.38) min | Tmax ([6]; in vivo): 50.2 (30.2,75.3) min

insulin aspart [RD10046]
C-peptide suppression after injection (reduction from baseline) [1]: 30.2 ± 14.7% | AUCGIR,0–10h, ratio of LS means (RD10046 divided by NovoRapid) ([4]; 90% CI in next column): 0.97^a | GIRmax, ratio of LS means (RD10046 divided by NovoRapid) ([4]; 90% CI in next column): 0.98^a | Tearly,50%, difference between medians (RD10046 - NovoRapid) ([4]; Hodges-Lehmann method): 0.13^b min | Tlate,50%, difference between medians (RD10046 - NovoRapid) ([4]; Hodges-Lehmann method): 0.39^b min | Tonset, difference between medians (RD10046 - NovoRapid) ([4]; Hodges-Lehmann method): 0^b min | tGIRmax, difference between medians (RD10046 - NovoRapid) ([4]; Hodges-Lehmann method): 15^b min | Tearly,50% (time of half-maximum GIR before GIRmax) ([4]; geometric mean (CV %)): 38 (21) min | Tlate,50% (time of half-maximum GIR after GIRmax) ([4]; geometric mean (CV %)): 227 (21) min | Tonset (first time of blood glucose declining to target level, 0.28 mmol/L less than baseline) ([4]; geometric mean (CV %)): 16 (28) min | tGIRmax (time of maximum glucose infusion rate) ([4]; geometric mean (CV %)): 113 (33) min | AUCGIR,0–10h (total glucose infusion during the clamp) ([4]; arithmetic mean): 1558 mg/kg | GIRmax (maximum glucose infusion rate) ([4]; arithmetic mean): 7.65 mg/kg/min | AUCGIR,0–10h (total glucose infusion during the clamp) ([4]; geometric mean (CV %)): 1493 (31) mg/kg | GIRmax (maximum glucose infusion rate) ([4]; geometric mean (CV %)): 7.44 (23) mg/kg/min | TEAE Electrocardiogram high voltage: number of AEs (number of subjects with AEs) [5]: 1 (1) | TEAE Hyperuricemia: number of AEs (number of subjects with AEs) [5]: 1 (1) | TEAE Induration: number of AEs (number of subjects with AEs) [5]: 1 (1) | TEAE Pain in extremity: number of AEs (number of subjects with AEs) [5]: 1 (1) | TEAE Platelet count increased: number of AEs (number of subjects with AEs) [5]: 1 (1) | TEAE Refraction disorder: number of AEs (number of subjects with AEs) [5]: 1 (1) | t1/2 [6]: 39.2 (13.1) min | AUCIAsp,0–10h, ratio of LS means (RD10046 divided by NovoRapid) ([6]; in vivo): 1.02^a | AUCIAsp,0–∞, ratio of LS means (RD10046 divided by NovoRapid) ([6]; in vivo): 1.02 | Cmax, ratio of LS means (RD10046 divided by NovoRapid) ([6]; in vivo): 1.01^a | Tmax ([6]; in vivo): 50.3 (20.4,60.9) min

— publication PMC8096952, “Similar pharmacokinetics and pharmacodynamics of a new biosimilar and reference insulin aspart in healthy Chinese males” (Scientific Reports, 2021)
